From the NIST ThermoML archive (doi:10.1021/je030130y)
± gives the expanded uncertainty stated by the source.

Assay: xn = mol fraction of the nth substance listed
Details: 101.3 kPa, Liquid; for viscosity: Capillary tube (Ostwald / Ubbelohde) method; for mass density: Pycnometric method

CN(C)C=O [dimethylformamide] + c1ccccc1
Details | mass density, 298.15 K [kg/m3] | mass density, 303.15 K [kg/m3] | mass density, 308.15 K [kg/m3] | mass density, 313.15 K [kg/m3] | viscosity, 298.15 K [mPa·s] | viscosity, 303.15 K [mPa·s] | viscosity, 308.15 K [mPa·s] | viscosity, 313.15 K [mPa·s]
x1 = 0.1076 | 881.1 ± 0.5 | 876 ± 0.5 | 870.8 ± 0.5 | 865.4 ± 0.5 | 0.622 ± 0.006 | 0.585 ± 0.005 | 0.547 ± 0.005 | 0.515 ± 0.005
x1 = 0.2069 | 888.4 ± 0.5 | 883.5 ± 0.5 | 878.4 ± 0.5 | 873.3 ± 0.5 | 0.641 ± 0.006 | 0.603 ± 0.005 | 0.564 ± 0.005 | 0.531 ± 0.005
x1 = 0.3124 | 896.3 ± 0.4 | 891.4 ± 0.4 | 886.5 ± 0.4 | 881.5 ± 0.5 | 0.662 ± 0.006 | 0.622 ± 0.006 | 0.582 ± 0.005 | 0.549 ± 0.005
x1 = 0.4132 | 904.2 ± 0.4 | 899.4 ± 0.4 | 894.6 ± 0.4 | 889.6 ± 0.4 | 0.688 ± 0.006 | 0.645 ± 0.006 | 0.602 ± 0.005 | 0.567 ± 0.005
x1 = 0.5148 | 911.7 ± 0.4 | 906.9 ± 0.4 | 902.2 ± 0.4 | 897.2 ± 0.4 | 0.712 ± 0.006 | 0.67 ± 0.006 | 0.627 ± 0.005 | 0.592 ± 0.005
x1 = 0.6145 | 918.6 ± 0.4 | 913.7 ± 0.4 | 908.9 ± 0.4 | 904 ± 0.4 | 0.731 ± 0.006 | 0.688 ± 0.006 | 0.644 ± 0.005 | 0.608 ± 0.005
x1 = 0.7093 | 925 ± 0.4 | 920.2 ± 0.4 | 915.4 ± 0.4 | 910.3 ± 0.4 | 0.747 ± 0.006 | 0.703 ± 0.006 | 0.659 ± 0.005 | 0.622 ± 0.005
x1 = 0.8084 | 931.6 ± 0.4 | 927 ± 0.4 | 922.2 ± 0.4 | 917.2 ± 0.4 | 0.763 ± 0.006 | 0.718 ± 0.006 | 0.673 ± 0.005 | 0.636 ± 0.005
x1 = 0.8998 | 936.8 ± 0.4 | 932.1 ± 0.4 | 927.4 ± 0.4 | 922.5 ± 0.4 | 0.78 ± 0.006 | 0.734 ± 0.006 | 0.689 ± 0.005 | 0.651 ± 0.005
x1 = 1 | 944.5 ± 0.3 | 939.8 ± 0.3 | 935.1 ± 0.3 | 930.2 ± 0.4 | 0.803 ± 0.006 | 0.756 ± 0.006 | 0.71 ± 0.005 | 0.673 ± 0.005

Clc1ccccc1 [chlorobenzene] + c1ccccc1
Details | mass density, 298.15 K [kg/m3] | mass density, 303.15 K [kg/m3] | mass density, 308.15 K [kg/m3] | mass density, 313.15 K [kg/m3] | viscosity, 298.15 K [mPa·s] | viscosity, 303.15 K [mPa·s] | viscosity, 308.15 K [mPa·s] | viscosity, 313.15 K [mPa·s]
x2 = 0 | 1100.9 ± 0.4 | 1095.8 ± 0.4 | 1090.8 ± 0.4 | 1085.1 ± 0.4 | 0.756 ± 0.006 | 0.714 ± 0.006 | 0.673 ± 0.005 | 0.635 ± 0.005
x2 = 0.1206 | 1076.5 ± 0.4 | 1071.4 ± 0.4 | 1066.4 ± 0.4 | 1060.7 ± 0.4 | 0.744 ± 0.006 | 0.699 ± 0.006 | 0.656 ± 0.005 | 0.618 ± 0.005
x2 = 0.2642 | 1046.5 ± 0.4 | 1041.4 ± 0.4 | 1036.3 ± 0.4 | 1030.7 ± 0.4 | 0.727 ± 0.006 | 0.682 ± 0.006 | 0.639 ± 0.005 | 0.601 ± 0.005
x2 = 0.3982 | 1017.5 ± 0.4 | 1012.4 ± 0.4 | 1007.3 ± 0.4 | 1001.7 ± 0.5 | 0.711 ± 0.006 | 0.667 ± 0.006 | 0.623 ± 0.005 | 0.585 ± 0.005
x2 = 0.4644 | 1002.8 ± 0.4 | 997.7 ± 0.5 | 992.6 ± 0.5 | 987 ± 0.5 | 0.702 ± 0.006 | 0.659 ± 0.006 | 0.616 ± 0.005 | 0.578 ± 0.005
x2 = 0.5321 | 987.7 ± 0.5 | 982.5 ± 0.5 | 977.3 ± 0.5 | 971.7 ± 0.5 | 0.694 ± 0.006 | 0.65 ± 0.006 | 0.607 ± 0.005 | 0.57 ± 0.005
x2 = 0.6074 | 970.4 ± 0.5 | 965.2 ± 0.5 | 960 ± 0.5 | 954.5 ± 0.5 | 0.683 ± 0.006 | 0.64 ± 0.006 | 0.598 ± 0.005 | 0.561 ± 0.005
x2 = 0.7069 | 946.8 ± 0.5 | 941.6 ± 0.5 | 936.4 ± 0.5 | 930.9 ± 0.5 | 0.665 ± 0.006 | 0.623 ± 0.006 | 0.582 ± 0.005 | 0.545 ± 0.005
x2 = 0.8131 | 920.9 ± 0.5 | 915.7 ± 0.5 | 910.5 ± 0.5 | 905 ± 0.5 | 0.643 ± 0.006 | 0.601 ± 0.005 | 0.562 ± 0.005 | 0.527 ± 0.005
x2 = 0.9162 | 895 ± 0.5 | 889.8 ± 0.5 | 884.6 ± 0.5 | 879.2 ± 0.5 | 0.621 ± 0.006 | 0.583 ± 0.005 | 0.545 ± 0.005 | 0.512 ± 0.005
